Measured values published in ChEMBL document CHEMBL1201862, “PubChem BioAssay data set” (2004).
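Grown in 96-well plates, cells were treated for 48 hours with each compound at five concentrations. Insufficient inhibition: endpoint recorded as highest concentration tested. GI50 = concentration required for 50% inhibition of growth.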 Activity calls are given as the source filed them. Rule as the data show it: active = GI50 up to about 1.1 µM and inactive = higher.

Legend:
Test in all cases: inhibition of tumour cell growth, NCI panel, 48 h
[1] = system: MDA-MB-435
[2] = system: KM12
[3] = system: NCI-H460
[4] = system: SNB-19
[5] = system: A549
[6] = system: HT-29
[7] = system: SK-MEL-2
[8] = system: OVCAR-3
[9] = system: TK-10
[10] = system: UO-31
[11] = system: MOLT-4
[12] = system: SR
[13] = system: IGROV-1
[14] = system: UACC-62
[15] = system: OVCAR-8
[16] = system: M14
[17] = system: T47D
[18] = system: NCI-H226
[19] = system: HCC 2998
[20] = system: SF-268

## O=C(O)C(=O)Cc1ccc2c(c1)OCO2
[1]
  GI50: > 100 µM (inactive)
[2]
  GI50: > 100 µM (inactive)
[3]
  GI50: > 100 µM (inactive)
[4]
  GI50: > 100 µM (inactive)
[5]
  GI50: > 100 µM (inactive)
[6]
  GI50: > 100 µM (inactive)
[7]
  GI50: > 100 µM (inactive)
[8]
  GI50: > 100 µM (inactive)
[9]
  GI50: > 100 µM (inactive)
[10]
  GI50: > 100 µM (inactive)
[11]
  GI50: 83.8 µM (inactive)
[12]
  GI50: > 100 µM (inactive)
[13]
  GI50: > 100 µM (inactive)
[14]
  GI50: > 100 µM (inactive)
[15]
  GI50: > 100 µM (inactive)
[16]
  GI50: > 100 µM (inactive)
[17]
  GI50: > 100 µM (inactive)
[18]
  GI50: 65.5 µM (inactive)

## Cc1ccc(/C=C2\CN(C)CC3C(c4ccc(C)cc4)=C(C#N)C(=O)NC23)cc1 (stereo unspecified)
[1]
  GI50: > 50 µM (inactive)
[2]
  GI50: > 50 µM (inactive)
[3]
  GI50: > 50 µM (inactive)
[4]
  GI50: > 50 µM (inactive)
[5]
  GI50: > 50 µM (inactive)
[19]
  GI50: > 50 µM (inactive)
[6]
  GI50: > 50 µM (inactive)
[7]
  GI50: > 50 µM (inactive)
[8]
  GI50: > 50 µM (inactive)
[9]
  GI50: > 50 µM (inactive)
[11]
  GI50: > 50 µM (inactive)
[13]
  GI50: > 50 µM (inactive)
[14]
  GI50: > 50 µM (inactive)
[15]
  GI50: > 50 µM (inactive)
[16]
  GI50: > 50 µM (inactive)
[17]
  GI50: > 50 µM (inactive)
[20]
  GI50: > 50 µM (inactive)
[18]
  GI50: > 50 µM (inactive)

## CCCCCCCCCCCCCC(=O)O.O=CC(O)C(O)C(OC1OC(CO)C(O)C(O)C1O)C(O)CO (stereo unspecified)
[1]
  GI50: 40.6 µM (inactive)
[2]
  GI50: 23.2 µM (inactive)
[3]
  GI50: > 100 µM (inactive)
[4]
  GI50: > 100 µM (inactive)
[5]
  GI50: 80.2 µM (inactive)
[6]
  GI50: > 100 µM (inactive)
[7]
  GI50: > 100 µM (inactive)
[8]
  GI50: > 100 µM (inactive)
[9]
  GI50: 37.7 µM (inactive)
[10]
  GI50: > 100 µM (inactive)
[12]
  GI50: 1 µM (active)
[13]
  GI50: 26.3 µM (inactive)
[14]
  GI50: 74.6 µM (inactive)
[15]
  GI50: > 100 µM (inactive)
[16]
  GI50: > 100 µM (inactive)
[17]
  GI50: > 100 µM (inactive)
[20]
  GI50: > 100 µM (inactive)
[18]
  GI50: 30.5 µM (inactive)

## COc1cc(C2=C(c3cc(OC)c4ccccc4c3OC)C(=O)c3ccccc3C2=O)c(OC)c2ccccc12
[1]
  GI50: > 100 µM (inactive)
[2]
  GI50: > 100 µM (inactive)
[3]
  GI50: > 100 µM (inactive)
[4]
  GI50: > 100 µM (inactive)
[5]
  GI50: > 100 µM (inactive)
[6]
  GI50: > 100 µM (inactive)
[7]
  GI50: > 100 µM (inactive)
[8]
  GI50: > 100 µM (inactive)
[9]
  GI50: > 100 µM (inactive)
[10]
  GI50: > 100 µM (inactive)
[11]
  GI50: > 100 µM (inactive)
[12]
  GI50: > 100 µM (inactive)
[13]
  GI50: > 100 µM (inactive)
[14]
  GI50: > 100 µM (inactive)
[15]
  GI50: > 100 µM (inactive)
[16]
  GI50: 82.4 µM (inactive)
[17]
  GI50: > 100 µM (inactive)
[20]
  GI50: > 100 µM (inactive)
[18]
  GI50: 59.6 µM (inactive)

## COc1ccc(C2c3cc4c(cc3OC(N3CCCCC3)C2C)OCO4)cc1 (stereo unspecified)
[1]
  GI50: 27 µM (inactive)
[2]
  GI50: > 100 µM (inactive)
[3]
  GI50: > 100 µM (inactive)
[4]
  GI50: > 100 µM (inactive)
[5]
  GI50: 85.1 µM (inactive)
[6]
  GI50: > 100 µM (inactive)
[7]
  GI50: > 100 µM (inactive)
[8]
  GI50: > 100 µM (inactive)
[9]
  GI50: > 100 µM (inactive)
[10]
  GI50: 85.3 µM (inactive)
[11]
  GI50: > 100 µM (inactive)
[12]
  GI50: > 100 µM (inactive)
[13]
  GI50: > 100 µM (inactive)
[14]
  GI50: > 100 µM (inactive)
[15]
  GI50: > 100 µM (inactive)
[16]
  GI50: > 100 µM (inactive)
[17]
  GI50: 71 µM (inactive)
[20]
  GI50: > 100 µM (inactive)

## Cc1ccn2c(CCc3nnc4cc(C)ccn34)nnc2c1
[1]
  GI50: > 100 µM (inactive)
[2]
  GI50: > 100 µM (inactive)
[3]
  GI50: > 100 µM (inactive)
[4]
  GI50: > 100 µM (inactive)
[5]
  GI50: > 100 µM (inactive)
[6]
  GI50: > 100 µM (inactive)
[7]
  GI50: > 100 µM (inactive)
[8]
  GI50: > 100 µM (inactive)
[9]
  GI50: > 100 µM (inactive)
[10]
  GI50: > 100 µM (inactive)
[11]
  GI50: > 100 µM (inactive)
[12]
  GI50: 15 µM (inactive)
[13]
  GI50: > 100 µM (inactive)
[14]
  GI50: > 100 µM (inactive)
[15]
  GI50: > 100 µM (inactive)
[16]
  GI50: > 100 µM (inactive)
[17]
  GI50: > 100 µM (inactive)
[20]
  GI50: > 100 µM (inactive)
[18]
  GI50: > 100 µM (inactive)

## Cc1cc(N2CCN(C)CC2)n2nc(-c3ccc(Cl)cc3)nc2n1
[1]
  GI50: > 100 µM (inactive)
[2]
  GI50: > 100 µM (inactive)
[3]
  GI50: 50.7 µM (inactive)
[4]
  GI50: > 100 µM (inactive)
[5]
  GI50: > 100 µM (inactive)
[6]
  GI50: 69.5 µM (inactive)
[7]
  GI50: 74.8 µM (inactive)
[8]
  GI50: > 100 µM (inactive)
[9]
  GI50: 68.1 µM (inactive)
[11]
  GI50: 34.8 µM (inactive)
[12]
  GI50: 17.7 µM (inactive)
[13]
  GI50: > 100 µM (inactive)
[14]
  GI50: 75.3 µM (inactive)
[15]
  GI50: > 100 µM (inactive)
[16]
  GI50: > 100 µM (inactive)
[17]
  GI50: > 100 µM (inactive)
[20]
  GI50: > 100 µM (inactive)
[18]
  GI50: > 100 µM (inactive)

## CCOC(=O)C1CCC(=O)N1C(=O)c1cccc(Cl)c1 (stereo unspecified)
[1]
  GI50: > 100 µM (inactive)
[2]
  GI50: > 100 µM (inactive)
[3]
  GI50: > 100 µM (inactive)
[4]
  GI50: > 100 µM (inactive)
[5]
  GI50: > 100 µM (inactive)
[6]
  GI50: > 100 µM (inactive)
[8]
  GI50: > 100 µM (inactive)
[9]
  GI50: > 100 µM (inactive)
[10]
  GI50: > 100 µM (inactive)
[11]
  GI50: > 100 µM (inactive)
[12]
  GI50: > 100 µM (inactive)
[13]
  GI50: > 100 µM (inactive)
[14]
  GI50: 14.8 µM (inactive)
[15]
  GI50: > 100 µM (inactive)
[16]
  GI50: > 100 µM (inactive)
[17]
  GI50: > 100 µM (inactive)
[20]
  GI50: > 100 µM (inactive)
[18]
  GI50: > 100 µM (inactive)

## O=C1NC(N2CCCCC2)=N/C1=C\c1ccccc1O
[1]
  GI50: > 100 µM (inactive)
[2]
  GI50: > 100 µM (inactive)
[4]
  GI50: > 100 µM (inactive)
[5]
  GI50: > 100 µM (inactive)
[6]
  GI50: > 100 µM (inactive)
[7]
  GI50: > 100 µM (inactive)
[8]
  GI50: > 100 µM (inactive)
[9]
  GI50: > 100 µM (inactive)
[10]
  GI50: > 100 µM (inactive)
[11]
  GI50: > 100 µM (inactive)
[12]
  GI50: > 10 µM (inactive)
[13]
  GI50: > 100 µM (inactive)
[15]
  GI50: > 100 µM (inactive)
[16]
  GI50: > 100 µM (inactive)
[17]
  GI50: > 100 µM (inactive)
[20]
  GI50: > 100 µM (inactive)
[18]
  GI50: 36.6 µM (inactive)

## COC(=O)C1=C(C(=O)OC)C2(c3ccccc3)c3ccccc3C(=O)C1N2C1CCCCC1 (stereo unspecified)
[1]
  GI50: 86.7 µM (inactive)
[2]
  GI50: 17.8 µM (inactive)
[3]
  GI50: 24.5 µM (inactive)
[4]
  GI50: > 63.4 µM (inactive)
[5]
  GI50: 17.7 µM (inactive)
[19]
  GI50: 23.2 µM (inactive)
[6]
  GI50: 42.1 µM (inactive)
[7]
  GI50: > 61.9 µM (inactive)
[8]
  GI50: 72.6 µM (inactive)
[9]
  GI50: 31.3 µM (inactive)
[10]
  GI50: 13 µM (inactive)
[11]
  GI50: 6.61 µM (inactive)
[13]
  GI50: 49.4 µM (inactive)
[14]
  GI50: 61.8 µM (inactive)
[15]
  GI50: 60.4 µM (inactive)
[16]
  GI50: 43.3 µM (inactive)
[17]
  GI50: > 100 µM (inactive)
[20]
  GI50: 88.7 µM (inactive)
[18]
  GI50: 50.4 µM (inactive)

## Cc1cccc(Br)[n+]1[O-]
[1]
  GI50: > 100 µM (inactive)
[2]
  GI50: > 100 µM (inactive)
[3]
  GI50: > 100 µM (inactive)
[4]
  GI50: > 100 µM (inactive)
[5]
  GI50: > 100 µM (inactive)
[6]
  GI50: > 100 µM (inactive)
[7]
  GI50: > 100 µM (inactive)
[8]
  GI50: > 100 µM (inactive)
[9]
  GI50: > 100 µM (inactive)
[10]
  GI50: > 100 µM (inactive)
[11]
  GI50: > 100 µM (inactive)
[12]
  GI50: > 100 µM (inactive)
[13]
  GI50: > 100 µM (inactive)
[14]
  GI50: > 100 µM (inactive)
[15]
  GI50: > 100 µM (inactive)
[16]
  GI50: > 100 µM (inactive)
[17]
  GI50: > 100 µM (inactive)
[20]
  GI50: > 100 µM (inactive)
[18]
  GI50: 96.4 µM (inactive)
